According to article PMC7059199, “Identification and structural insight of an effective PPARγ modulator with improved therapeutic index for anti-diabetic drug discovery” (Chemical Science, 2020):

Target: T1, GST-PPARγ LBD (Homo sapiens, UniProt P37231)
T1 construct: 0.5 nM GST-PPARγ LBD was incubated with 5 nM Fluormone™; purchased Invitrogen
T1 sequence (P37231 238-503 limits assumed): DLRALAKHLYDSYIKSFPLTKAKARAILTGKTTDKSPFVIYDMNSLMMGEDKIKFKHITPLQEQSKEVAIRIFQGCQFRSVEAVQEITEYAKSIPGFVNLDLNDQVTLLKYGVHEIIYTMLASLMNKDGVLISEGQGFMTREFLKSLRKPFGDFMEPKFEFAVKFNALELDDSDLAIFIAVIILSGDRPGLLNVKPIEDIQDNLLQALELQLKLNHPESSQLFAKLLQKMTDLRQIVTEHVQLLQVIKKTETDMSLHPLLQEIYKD
Assay: LanthaScreen TR-FRET competitive binding assay, PPARγ
Experimental: LanthaScreen™ TR-FRET assay (Invitrogen) was used for measuring the binding affinities of the ligands. 0.5 nM GST-PPARγ LBD was incubated with 5 nM Fluormone™ and Terbium-coated GST antibody.
Competitive TR -FRET binding assay
The GST PPARγ -LBD was labeled with a terbium-linked antibody and a fluorescent small molecule pan-PPAR ligand (Fluormone™ Pan-PPAR Green, Invitrogen) was used as a tracer that is displaced from the ligand binding domain upon agonist binding.
Excitation of the terbium at 340 nm results in FRET to the fluorescent tracer, with
Tracer displacment results is a loss of FRET signal between the terbium label and the fluorescent tracer.
The inhibition constant (ki) for a competitor was calculated by applying the
Cheng-Prusoff equation as following:
the tracer, [tracer] is the concentration of Fluormone™ Pan-PPAR Green used in the
(average±standard deviation calculated from three separate experiments).

binding to PPARγ (in words) (at 10 μM): potent binding affinity | Ki (competition of Fluormone (5 nM), 0.5 nM GST-PPARγ LBD): 4.8 µM | binding affinity for PPARγ relative to DA (higher than DA): about 10 fold
Compound: CCCCCCCC(OCC(=O)O)c1ccc(Cl)cc1 (stereo not drawn) [VSP-77]
